The record followed here is patent publication US11718614B2, “Compounds and methods for treatment of hedgehog pathway associated conditions” (Suzhou Mednes Pharma Tech Co., Ltd., priority 2018, dated 2023).

The test system of this assay is tumor cells from medulloblastoma developed from mice with deficiency in Patched1 gene. The assay is described as follows: MB assay: survival of medulloblastoma tumor cells by MTT after 48 hours. Format: cell-based. The following applies: Mus musculus, tumor cells treated 48 hours, cell survival by MTT. Here is the method:
To test the effect of the novel compounds on the proliferation of tumor cell, we isolated tumor cells from medulloblastoma developed from mice with deficiency in Patched1 gene. Tumor cells were plated in vitro as previously described, and treated with various concentration of compounds for 48 hours. Tumor cells cultured were then harvested to measure cell survival based on MTT assay. The IC50 value for each compound was calculated using Prism the statistical software.
Table 1 below summarizes the IC50 data obtained using MB assay for exemplary compounds of the invention. IC50 values are shown as A, B, C, or D. A represents IC50 value between 1.0 μM and 5.0 μM; B is between 5.0 μM and 10 μM; C is between 10 μM to 20 μM; and D indicates greater than 20 μM.
The compound `CC(C)Cc1ccc(C(C)c2nc3cc(C(=O)O)ccc3n2Cc2ccccc2Cl)cc1` (stereo not drawn) [Compound 53] came in with an IC50 of 10 to 20 µM.

The compound `COc1ccc2c(c1)c(-c1ccc(CC(C)C)cc1)c(C)n2Cc1ccccc1Cl` [Compound 54] registered an IC50 of over 20 µM. As for `Cc1c(-c2ccc(CC(C)C)cc2)c2cc(O)ccc2n1Cc1ccccc1Cl` [Compound 55], the figure is 1 to 5 µM; as for `COc1ccc2c(c1)c(-c1ccc(CC(C)C)cc1)cn2Cc1ccccc1Cl` [Compound 56, 1-(2-chlorobenzyl)-3-(4-isobutylphenyl)-5-methoxy-1H-indole], over 20 µM; as for `COc1ccc2c(c1)nc(CC(C)(C)C(=O)O)n2Cc1ccccc1Cl` [Compound 57], over 20 µM.

Consider `COC(=O)C(C)(C)Cc1nc2cc(OC)ccc2n1Cc1ccccc1Cl` [Compound 58], for which the IC50 is over 20 µM.

By IC50 is commonly meant the concentration that inhibits the measured activity by half. Read a high IC50 as lower potency.
